# Data from patent US4127687A, “Prevention of fouling of marine structures such as boat hulls” (Rohm and Haas Company, priority 1976, dated 1978).
# Where two headings read alike, the source gives them in different places.
# Key:
# [1] = test system: Enteromorpha spores; assay: Laboratory toxicity test (Lab Bioassay) with Enteromorpha spores; assay type: in vivo; settings: using Enteromorpha spores
# Description: Standard laboratory toxicity tests use Enteromorpha spores (zoospores or gametes) but Ectocarpus spores and barnacle nauplii may also be used. During the spore tests additional information on the control of bacterial and diatom slimes becomes available since these organisms are unavoidably introduced with the spore inoculum.
# More detailed laboratory toxicity tests on promising compounds determine LD50 values as percentage saturated solution.
# ^c Using Enteromorpha spores.
# [2] = Water solubility by UV spectrophotometric method; assay type: physicochemical; settings: water
# Summary of the method: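 Molar absorptivity determined from UV absorbance of a known-concentration aqueous solution at λmax (10 cm cell). Saturated solution prepared by stirring excess compound in deionized water ~72 hrs, filtered, diluted to mid-scale absorbance; solubility calculated from absorbance using that absorptivity.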
# [3] = Amount of toxicant remaining in the test container after membrane diffusion raft tests; assay type: physicochemical; design: key: 0: empty or trace; +: some; + +: ample; settings: after completion of membrane diffusion raft tests
# Summary of the method: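 Known amount of compound held in a cylindrical container sealed with a membrane of known porosity, fixed to a raft panel so toxicant diffuses into the surrounding water. Each panel carries 35 test compounds, 4 standard poisons and 1 non-toxic membrane control. After the trial, container contents inspected visually for remaining toxicant (0 = empty or trace).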
# [4] = test system: weed; assay: Paint panel / plaque tests against weed (Table 2); assay type: in vivo, grass-like algal growth common in sea water; design: key: high performance; medium performance; low performance; poor or unacceptable performance; settings: April to November, 1975
# Description: (3) PAINT FORMULATION AND TEST PANEL OR PLAQUE TESTS
# In order to evaluate the compound under practical conditions, weighed quantities of promising compounds are ground in standard volumes of a selected range of paint media and brushed out on plaques for marine immersion.
# The anti-fouling paint formulations used is exemplified by the following: […]
# The most preferred specific compounds were utilized in paints including vinyl chloride-vinyl acetate copolymers, chlorinated rubber, acrylic emulsions, and conventional paints with or without rosin to contain 20% by weight of biocide in the wet film and in some cases (Example 144 and Example 145) with concentrations of 5, 10, and 15% based on the wet film. Each of the compounds is also described in the membrane tests noted above. The paints were applied at normal thicknesses to plaques or panels of 10 centimeters by 10 centimeters which were immersed in various positions as described for the raft noted above. The compounds and results, as against weed, in the season April to November, 1975, are as follows: […]
# [5] = test system: weed; assay: Membrane Diffusion Raft Trials, weed control; assay type: in vivo, grass-like algal growth common in sea water; design: key: 0 = none, + = some, ++ = effective; settings: membrane test, average 15 to 16 weeks of immersion
# Summary of the method: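 Field raft test in sea water: known quantity of compound in container sealed with membrane of known porosity, diffusing into surrounding water; panels at waterline (illuminated, aerated) and flats (poorly lit, deeper). Fouling settlement inspected over about 15-16 weeks average immersion; scored 0 none, + some, ++ effective.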
# [6] = test system: barnacle; assay: Membrane Diffusion Raft Trials, barnacle control; assay type: in vivo, barnacles; design: key: 0 = none, + = some, ++ = effective barnacle control; settings: membrane test, average 15 to 16 weeks of immersion
# Summary of the method: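 Test compound held in a plastic container sealed by a porous membrane, diffusing into surrounding seawater on raft panels alongside standard poisons and a non-toxic control membrane. Settlement timed and quantified by regular inspection; scored 0 (none), + (some) or ++ (effective), averaging 15 to 16 weeks' immersion.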
# [7] = test system: sea water marine organisms; assay: Effectiveness as sea water marine anti-foulant; assay type: in vivo; settings: result in words
# Description: The results in anti-fouling paints when utilizing the 3-isothiazolones of the patents noted above, are not predictable from their effectiveness as general biocides, whether against fresh water algae, bacteria, fungi, insects, etc.
# Of the compounds appearing hereinafter in the examples, a number are common to Table 1 appearing in columns 9-12 of the U.S. Pat. No. 3,573,488 patent. Among the compounds common to the latter patent and the present specification are the compounds identified in the patent as example numbers 3, 5-8, 13, 23, 24, 33, 36, 37, the n-octyl isomer of examples 38, 40, 75, 76, 79, 84, and 93-96.
# In example B of the U.S. Pat. No. 3,573,448 patent (appearing in columns 22-24) involving the control of algae, bacteria, fungi, and slime in fresh water cooling towers, not one of the compounds, or in some cases its homologue or analog, was effective as a salt water marine anti-foulant. […]
# In the following examples, two systems of testing the compounds and evaluating the same are utilized. One involves the utilization of a confined amount of the materials to be evaluated in a cylindrical container having an open end covered by a membrane permeable to a limited extent by the sea water and by the compound in the container. The other method involves making up an anti-fouling paint and testing the same. In a four month period, meaningful results are obtained, and for a full scale test, a six month period, bracketing the summer months, is preferred. The evaluations involving (1) field tests, (2) laboratory tests, and (3) paint panel tests, are as follows: […]
# [8] = saturated solution, Table 1, read-out: Solubility by UV method
Structure (SMILES),Lab Bioassay LD50 [1],"solubility [2, 8]",Contents at the end of test (amount of toxicants remaining in the test container) [3],Weed Control [5],Barnacle Control [6],effectiveness as anti-foulant in sea water marine environments [7],also measured
CCCCCCCCCCn1sc(Cl)c(Cl)c1=O [Example 63],0.03 percentage saturated solution,1.4 µg/mL,+ +,+ +,0,,Effectiveness in paint CONV (conventional anti-fouling formulation) [4]: l; Effectiveness in paint CR (chlorinated rubber) [4]: p; Effectiveness in paint CR/R (chlorinated rubber/rosin) [4]: p; Effectiveness in paint EM (acrylic emulsion) [4]: m; Effectiveness in paint V (polyvinyl chloride-acetate) [4]: m; Effectiveness in paint V/R (vinyl/rosin) [4]: m
"O=c1c(Cl)c(Cl)sn1-c1ccc(Cl)cc1 [Example 145, 4,5-dichloro-2(4'-chlorophenyl)-3-isothiazolone]",,,,,,effective in anti-fouling environments,Effectiveness in paint CONV (conventional anti-fouling formulation) [4]: h; Effectiveness in paint CR (chlorinated rubber) [4]: h; Effectiveness in paint EM (acrylic emulsion) [4]: h; Effectiveness in paint V (polyvinyl chloride-acetate) [4]: h; Effectiveness in paint V/R (vinyl/rosin) [4]: h
O=c1cc(Cl)sn1Cc1ccccc1 [5-chloro-2-benzyl-3-isothiazolone],,,,,,effective in both environments,
"CCCCCCCCCCn1sccc1=O [2-n-decyl-3-isothiazolone, reference compound]",,,,,,ineffective as anti-foulants,
"Cn1scc(Cl)c1=O [4-chloro-2-methyl-3-isothiazolone, reference compound]",,,,,,not active for controlling sea water marine organisms,
"O=c1ccsn1Cc1ccccc1 [2-benzyl-3-isothiazolone, reference compound]",,,,,,not active for controlling sea water marine organisms,effectiveness as anti-foulant in sea water marine environments ([7]; listed as benzyl analogue of 2-n-butyl-3-isothiazolone): ineffective as anti-foulants
O=c1cc(Cl)sn1-c1ccc(Cl)cc1 [Example 34],0.025 percentage saturated solution,41 µg/mL,+ +,+ +,+ +,,
O=c1c(Cl)c(Cl)sn1-c1ccc(Cl)cc1 [Example 75],0.006 percentage saturated solution,3 µg/mL,+ +,+ +,0,,
CCCCCCCCn1scc(Cl)c1=O [Example 43],0.0003 percentage saturated solution,60 µg/mL,+,+ +,0,,Effectiveness in paint V (polyvinyl chloride-acetate) [4]: h; Effectiveness in paint V/R (vinyl/rosin) [4]: h
"CC(C)(C)CC(C)(C)n1sccc1=O [Example 4, 2-t-octyl-3-isothiazolone]",,410 µg/mL,0,0,0,not active for controlling sea water marine organisms,
Cc1c(Cl)sn(-c2ccc(Cl)cc2)c1=O [Example 114],0.008 percentage saturated solution,14 µg/mL,+ +,+ +,+ +,,
CCCCn1sc(Cl)c(Cl)c1=O [Example 55],,1000 µg/mL,+,+ +,+,control or inhibit the growth of one or more sea water marine organisms,
"CCCCCCCCn1sccc1=O [Example 3, 2-n-octyl-3-isothiazolone]",,,0,0,0,not active for controlling sea water marine organisms,solubility [2]: 481 µg/mL; effectiveness as anti-foulant in sea water marine environments ([7]; listed as octyl homologue of 2-n-butyl-3-isothiazolone): ineffective as anti-foulants; effectiveness as anti-foulant in sea water marine environments ([7]; listed as octyl homologue of 2-n-decyl-3-isothiazolone): not active for controlling sea water marine organisms
"CCCCCCn1sccc1=O [Example 2, 2-n-hexyl-3-isothiazolone]",,5100 µg/mL,0,0,0,not active for controlling sea water marine organisms,effectiveness as anti-foulant in sea water marine environments ([7]; listed as hexyl homologue of 2-n-butyl-3-isothiazolone): ineffective as anti-foulants
CCCCCCn1sc(Cl)c(Cl)c1=O [Example 56],,115 µg/mL,0,+ +,+ +,control or inhibit the growth of one or more sea water marine organisms,
"Cn1sc(Cl)cc1=O [5-chloro-2-methyl-3-isothiazolone, reference compound]",,,,,,ineffective as anti-foulants,
CC(C)(C)CC(C)(C)n1sc(Cl)c(Cl)c1=O [Example 59],0.006 percentage saturated solution,38 µg/mL,+ +,+ +,+,,
O=c1c(Br)c(Cl)sn1Cc1ccc(Cl)cc1 [Example 91],0.02 percentage saturated solution,3.3 µg/mL,+,+ +,0,,
"CCCCn1sccc1=O [Example 1, 2-n-butyl-3-isothiazolone]",,,0,0,0,ineffective as anti-foulants,
CCCCCCCCCCCCn1sccc1=O [Example 5],,,+,0,0,not active for controlling sea water marine organisms,
Cc1c(Cl)sn(-c2cccc(Cl)c2)c1=O [Example 113],0.013 percentage saturated solution,13 µg/mL,+ +,+ +,+,,
CCCCC(CC)Cn1sc(Cl)c(Cl)c1=O (stereo not shown) [Example 58],0.0024 percentage saturated solution,30 µg/mL,+,+ +,+ +,,
COc1ccc(-n2sc(Cl)cc2=O)cc1 [Example 38],0.025 percentage saturated solution,300 µg/mL,+ +,+ +,+,,
